From patent US20080193958A1, “Method for the High-Speed Detection and/or Measurement of a Lipase or Phospholipase Activity” (CENTRE NATIONAL DE LA RECHERCHE SCIENTIFIQUE, priority 2005, published 2008)

Legend:
[1] = molecular target: T1, human pancreatic lipase (HPL) (Homo sapiens, UniProt P16233); experiment: Inhibition of human pancreatic lipase pre-incubated with THL, coated tung oil triglyceride microplate (method A); format: biochemical; details: OD at 272 nm
T1 sequence (P16233 17-465): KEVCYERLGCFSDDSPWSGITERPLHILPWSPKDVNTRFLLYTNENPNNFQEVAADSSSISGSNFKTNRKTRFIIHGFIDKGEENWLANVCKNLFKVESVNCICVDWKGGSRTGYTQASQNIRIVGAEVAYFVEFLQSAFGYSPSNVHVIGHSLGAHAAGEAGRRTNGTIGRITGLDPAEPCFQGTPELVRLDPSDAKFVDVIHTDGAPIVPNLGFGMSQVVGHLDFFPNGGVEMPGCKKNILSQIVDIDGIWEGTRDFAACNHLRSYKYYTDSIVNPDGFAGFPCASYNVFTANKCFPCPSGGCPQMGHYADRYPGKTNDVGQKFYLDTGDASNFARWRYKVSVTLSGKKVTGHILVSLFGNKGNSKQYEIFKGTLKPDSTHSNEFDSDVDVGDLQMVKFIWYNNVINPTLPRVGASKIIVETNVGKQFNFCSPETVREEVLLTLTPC
Description: FIGS. 4A and 4B represent the inhibition kinetics of HPL (human pancreatic lipase) by THL (tetrahydrolipstatin). The microplate is prepared by “coating” with triglycerides (50 μg/well) extracted from tung oil which contains a high proportion of a-eleostearic acid. A solution (200 μl) of Tris buffer is added to the wells. The activity of the HPL alone, or pre-incubated with the THL, is measured by recording the optical density (method A; FIG. 4A). FIG. 4A represents the optical density (OD) at 272 nm as a function of time. The curve with the black circles corresponds to the lipase HPL alone; the curve with the black squares corresponds to the lipase HPL pre-incubated with THL in a ratio of 1:100 and the curve with the white circles corresponds to the lipase HPL pre-incubated with THL in a ratio of 1:50. The microtitration plates, with “coating” of the lipid substrate, are prepared as has been described above. A solution constituted by Tris buffer and β-cyclodextrin (3 mg/ml) is added into the wells. The optical density at 270 nm is recorded as a function of time for 5 to 10 min (see FIGS. 4A and 4B). A solution of human pancreatic lipase (HPL), alone or pre-incubated with THL (inhibitor), is injected into the wells. The enzymatic activity is then recorded as a function of time by measurement of the OD at 272 nm (method A; FIG. 4A). […]

[2] = molecular target: T1, human pancreatic lipase (HPL); experiment: Inhibition of human pancreatic lipase by THL injected during lipolysis, coated microplate (method B); format: biochemical; details: THL 10 nM final injected during lipolysis, HPL 2 nM final
Description: FIG. 4B corresponds to a different protocol (method B): after the injection of HPL (at a final concentration of 2 nM), THL is injected into the reaction medium (at a final concentration of 10 nM) during lipolysis. The microtitration plates, with “coating” of the lipid substrate, are prepared as has been described above. A solution constituted by Tris buffer and β-cyclodextrin (3 mg/ml) is added into the wells. The optical density at 270 nm is recorded as a function of time for 5 to 10 min (see FIGS. 4A and 4B). A solution of human pancreatic lipase (HPL), alone or pre-incubated with THL (inhibitor), is injected into the wells. The enzymatic activity is then recorded as a function of time by measurement of the OD at 272 nm (method A; FIG. 4A). The pre-incubation of HPL with THL, at a molar excess of 1 to 100 or of 1 to 50 for 10 min, reduces the initial lipase activity by 75% or 40% respectively (see FIG. 4A). The effect of THL on the lipase activity has also been measured by injecting THL during lipolysis (method B; FIG. 4B). The injection of THL (at a final concentration of 10 nM) reduces the activity of HPL by approximately 40%.

In the case of CCCCCCCCCCC[C@@H](C[C@@H]1OC(=O)[C@H]1CCCCCC)OC(=O)[C@H](CC(C)C)NC=O [THL, Tetrahydrolipstatin], the “reduction of the initial lipase activity” value ([1]; HPL pre-incubated with THL at a molar excess of 1 to 50 for 10 min) is reported as 40%, the “reduction of the initial lipase activity” value ([1]; HPL pre-incubated with THL at a molar excess of 1 to 100 for 10 min) is reported as 75% and the “reduction of the activity of HPL” value [2] is reported as “approximately 40%”.
